The record followed here is PubChem BioAssay AID1259407 (Chemical Carcinogenesis Research Information System (CCRIS), 2018).

Active and inactive are the calls of the source. No rule for the calls is given here.

In the series the test system is CCRIS mutagenicity, Ames/micronucleus/aberration tests. The series can be described thus: CCRIS mutagenicity studies.

For the molecule `Cl`, the mutagenic call runs as follows: (End Point: IN VITRO CHROMOSOMAL ABERRATIONS, Test System: CHO-WBL CELLS, Metabolic Activation: NONE) “active; positive (structural changes); osmolality of solution decisive factor”; (Test System: AMES SALMONELLA TYPHIMURIUM, Strain/Indicator: TA97, Metabolic Activation: NONE, Method: PREINCUBATION) “inactive; negative”; (Test System: AMES SALMONELLA TYPHIMURIUM, Strain/Indicator: TA97, Metabolic Activation: NONE, Method: STANDARD PLATE) “inactive; negative”; (Test System: AMES SALMONELLA TYPHIMURIUM, Strain/Indicator: TA97, Metabolic Activation: RAT, LIVER, S-9, AROCLOR 1254, Method: PREINCUBATION) “inactive; negative”; (Test System: AMES SALMONELLA TYPHIMURIUM, Strain/Indicator: TA97, Metabolic Activation: RAT, LIVER, S-9, PHENOBARBITAL, Method: STANDARD PLATE) “inactive; negative”; (Test System: AMES SALMONELLA TYPHIMURIUM, Strain/Indicator: TA98, Metabolic Activation: NONE, Method: PREINCUBATION) “inactive; negative”. The mutagenic call was “inactive; negative” (Test System: AMES SALMONELLA TYPHIMURIUM, Strain/Indicator: TA98, Metabolic Activation: NONE, Method: STANDARD PLATE); “inactive; negative” (Test System: AMES SALMONELLA TYPHIMURIUM, Strain/Indicator: TA98, Metabolic Activation: RAT, LIVER, S-9, KC 500, Method: PREINCUBATION); “inactive; negative” (Test System: AMES SALMONELLA TYPHIMURIUM, Strain/Indicator: TA98, Metabolic Activation: RAT, LIVER, S-9, PHENOBARBITAL, Method: STANDARD PLATE); “inactive; negative” (Test System: AMES SALMONELLA TYPHIMURIUM, Strain/Indicator: TA100, Metabolic Activation: NONE, Method: PREINCUBATION); “inactive; negative” (Test System: AMES SALMONELLA TYPHIMURIUM, Strain/Indicator: TA100, Metabolic Activation: NONE, Method: STANDARD PLATE); “inactive; negative” (Test System: AMES SALMONELLA TYPHIMURIUM, Strain/Indicator: TA100, Metabolic Activation: RAT, LIVER, S-9, KC 500, Method: PREINCUBATION). The mutagenic call was “inactive; negative” (Test System: AMES SALMONELLA TYPHIMURIUM, Strain/Indicator: TA100, Metabolic Activation: RAT, LIVER, S-9, PHENOBARBITAL, Method: STANDARD PLATE); “inactive; negative” (Test System: AMES SALMONELLA TYPHIMURIUM, Strain/Indicator: TA102, Metabolic Activation: NONE, Method: PREINCUBATION); “inactive; negative” (Test System: AMES SALMONELLA TYPHIMURIUM, Strain/Indicator: TA102, Metabolic Activation: RAT, LIVER, S-9, AROCLOR 1254, Method: PREINCUBATION); “inactive; negative” (Test System: AMES SALMONELLA TYPHIMURIUM, Strain/Indicator: TA1535, Metabolic Activation: NONE, Method: PREINCUBATION); “inactive; negative” (Test System: AMES SALMONELLA TYPHIMURIUM, Strain/Indicator: TA1535, Metabolic Activation: NONE, Method: STANDARD PLATE); “inactive; negative” (Test System: AMES SALMONELLA TYPHIMURIUM, Strain/Indicator: TA1535, Metabolic Activation: RAT, LIVER, S-9, KC 500, Method: PREINCUBATION). Also, the mutagenic call is, setting by setting: (Test System: AMES SALMONELLA TYPHIMURIUM, Strain/Indicator: TA1535, Metabolic Activation: RAT, LIVER, S-9, PHENOBARBITAL, Method: STANDARD PLATE) “inactive; negative”; (Test System: AMES SALMONELLA TYPHIMURIUM, Strain/Indicator: TA1537, Metabolic Activation: NONE, Method: PREINCUBATION) “inactive; negative”; (Test System: AMES SALMONELLA TYPHIMURIUM, Strain/Indicator: TA1537, Metabolic Activation: NONE, Method: STANDARD PLATE) “inactive; negative”; (Test System: AMES SALMONELLA TYPHIMURIUM, Strain/Indicator: TA1537, Metabolic Activation: RAT, LIVER, S-9, KC 500, Method: PREINCUBATION) “inactive; negative”; (Test System: AMES SALMONELLA TYPHIMURIUM, Strain/Indicator: TA1537, Metabolic Activation: RAT, LIVER, S-9, PHENOBARBITAL, Method: STANDARD PLATE) “inactive; negative”; (Test System: AMES SALMONELLA TYPHIMURIUM, Strain/Indicator: TA1538, Metabolic Activation: NONE, Method: PREINCUBATION) “inactive; negative”. The mutagenic call is “inactive; negative” (Test System: AMES SALMONELLA TYPHIMURIUM, Strain/Indicator: TA1538, Metabolic Activation: NONE, Method: STANDARD PLATE); “inactive; negative” (Test System: AMES SALMONELLA TYPHIMURIUM, Strain/Indicator: TA1538, Metabolic Activation: RAT, LIVER, S-9, KC 500, Method: PREINCUBATION); “inactive; negative” (Test System: AMES SALMONELLA TYPHIMURIUM, Strain/Indicator: TA1538, Metabolic Activation: RAT, LIVER, S-9, PHENOBARBITAL, Method: STANDARD PLATE); “inactive; negative” (Test System: E. COLI, Strain/Indicator: WP2 UVRA, Metabolic Activation: NONE, Method: PREINCUBATION); “inactive; negative” (Test System: E. COLI, Strain/Indicator: WP2 UVRA, Metabolic Activation: NONE, Method: SPOT TEST); “inactive; negative” (Test System: E. COLI, Strain/Indicator: WP2 UVRA, Metabolic Activation: RAT, LIVER, S-9, KC 500, Method: PREINCUBATION). For the same molecule, the mutagenic call is “inactive; negative” (Test System: MOUSE LYMPHOMA, Strain/Indicator: L5178Y (TK+/TK-), Metabolic Activation: NONE, Method: SUSPENSION/PLATE); “active; positive” (Test System: MOUSE LYMPHOMA, Strain/Indicator: L5178Y (TK+/TK-), Metabolic Activation: RAT, LIVER, S-9, AROCLOR 1254, Method: SUSPENSION/PLATE); “active; positive” (Test System: MOUSE LYMPHOMA, Strain/Indicator: L5178Y (TK+/TK-), Metabolic Activation: RAT, LIVER, S-9, Method: SUSPENSION/PLATE).
Consider `COC(=O)C(Cl)Cl`, for which the mutagenic call was “active; positive (structural changes); precipitation of test chemical observed above 1.6” (End Point: IN VITRO CHROMOSOMAL ABERRATIONS, Test System: CHL CELLS, Metabolic Activation: NONE); “active; positive (structural changes); precipitation of test chemical observed above 2.0” (End Point: IN VITRO CHROMOSOMAL ABERRATIONS, Test System: CHL CELLS, Metabolic Activation: RAT, LIVER, S-9, SODIUM PHENOBARBITAL AND 5,6-BENZOFLAVONE); “active; positive” (Test System: AMES SALMONELLA TYPHIMURIUM, Strain/Indicator: TA102, Metabolic Activation: RAT, LIVER, S-9, PHENOBARBITAL AND 5,6-BENZOFLAVONE, Method: STANDARD PLATE); “active; positive” (Test System: AMES SALMONELLA TYPHIMURIUM, Strain/Indicator: TA2638, Metabolic Activation: RAT, LIVER, S-9, PHENOBARBITAL AND 5,6-BENZOFLAVONE, Method: STANDARD PLATE); “active; positive” (Test System: E. COLI, Strain/Indicator: WP2 (PKM101), Metabolic Activation: RAT, LIVER, S-9, PHENOBARBITAL AND 5,6-BENZOFLAVONE, Method: STANDARD PLATE); “active; positive” (Test System: E. COLI, Strain/Indicator: WP2 UVRA (PKM101), Metabolic Activation: RAT, LIVER, S-9, PHENOBARBITAL AND 5,6-BENZOFLAVONE, Method: STANDARD PLATE).
Turning to `NCCCCC(N)C(=O)O` (stereo not given), the mutagenic call (Test System: AMES SALMONELLA TYPHIMURIUM, Strain/Indicator: TA98, Metabolic Activation: RAT LIVER S-9, CHLOROPHENE, Method: STANDARD PLATE (COMPOUND HEATED AT 250 DEGREES CELSIUS FOR 20 MIN)) is “active; positive”.
